# Square brackets hold non-standard residues; d marks the D form. Ends that are not written are not given here. Peptide text beside a SMILES is read from it. NMeE = CN[C@@H](CCC(=O)O)C(=O)O
# Experiment: Stability of peptide in human serum (residual adhesion inhibitory activity after serum incubation)
# Assay type: in vitro ADME
# Details: for stability of activity in human serum (in words): 500 μg/mL in 90% human serum, 0 to 56 hours, FIGS. 2A to 2D; for residual adhesion inhibitory activity after serum treatment: untreated FNIII14 = 100
# Procedure: FNIII14 (500 μg/mL), each of the modified peptides (500 μg/mL), or a solution thereof was incubated in human serum (final concentration 90%; 0.01% of sodium azide as a preservative having been added thereto) under a condition of 37° C. and 5% CO2 for determined periods in a range of from 0 to 56 hours. Thereafter, each sample was diluted with DMEM (-) such that the peptide concentration in each well would be 25 μg/mL, and was inoculated onto a 96-well tissue culture plate together with A375SM cells prepared at 1.5×10^4/well, the 96-well tissue culture plate having been coated with 0.5 μg/mL of FN. After the plate was subjected to culturing for a certain time, […] of a PBS (-) solution containing 4% of formalin and 5% of sucrose was gently added to wells, and left to stand at room temperature for 1 hour, whereby the cells were immobilized. After the immobilization, the number of cells observed in predetermined four fields was counted and taken as the total number of cells. Non-adhered cells were removed by washing with a PBS (-) solution three times, and then the number of adhered cells in the same four fields as those mentioned above was counted under a microscope. Assuming that the adhesion inhibitory activity of FNIII14 that was not subjected to the treatment with serum was 100, the ratio of the residual adhesion inhibitory activity of FNIII14 or the modified peptide remaining after the serum treatment was evaluated in terms of percentage. In FIGS. 2A to 2C, white diamonds represent the results obtained using FNIII14, white squares represent the results obtained using Ace-FNIII14, white circles represent the results obtained using Met-FNIII14, and white triangles represent the results obtained using D-FNIII14. In FIG. 2D, black circles represent the activity of FNIII14, and black triangles represent the activity of D-Glu-FNIII14.
Compound,stability of activity in human serum (in words) (37° C.),"increase of activity in the serum (90% human serum, 37° C.) [%]","residual adhesion inhibitory activity after serum treatment (90% human serum, 37° C.)",resistance to decomposition in human serum (aminopeptidase or the like in human serum),"time at which decomposition tendency was exhibited in serum (long term stability over 60 hours, FIG. 2D) [h]","residual adhesion inhibitory activity after serum treatment (after 20 hours in 90% human serum, 37° C., FIG. 2A)"
"CC[C@H](C)[C@H](NC(=O)[C@@H](NC(=O)[C@H](Cc1ccc(O)cc1)NC(=O)[C@@H](NC(=O)[C@@H](NC(=O)[C@H](Cc1ccc(O)cc1)NC(=O)[C@H](CCC(=O)O)NC(=O)[C@@H](NC(=O)CNC(=O)[C@@H]1CCCN1C(=O)[C@H](CCC(=O)O)NC(=O)[C@H](CC(C)C)NC(=O)CNC(=O)[C@@H](NC(=O)[C@@H](NC(=O)[C@@H](NC(=O)[C@H](C)NC(=O)[C@@H](CCC(=O)O)NC(=O)[C@@H](N)[C@@H](C)O)[C@@H](C)O)[C@@H](C)CC)[C@@H](C)O)[C@@H](C)O)[C@@H](C)O)[C@@H](C)CC)C(C)C)C(=O)N[C@@H](C)C(=O)N[C@@H](CC(C)C)C(=O)O [D-Glu-FNIII14, T-[D-Glu]-ATITGLEPGTEYTIYVIAL] (H-T[dE]ATITGLEPGTEYTIYVIAL-OH; N-terminus and C-terminus assumed)",did not exhibit a decrease of its activity in the serum,≥ 20,over 100%,exhibited resistance to decomposition,≥ 50,–
"CC[C@H](C)[C@H](NC(=O)[C@@H](NC(=O)[C@H](Cc1ccc(O)cc1)NC(=O)[C@@H](NC(=O)[C@@H](NC(=O)[C@H](Cc1ccc(O)cc1)NC(=O)[C@H](CCC(=O)O)NC(=O)[C@@H](NC(=O)CNC(=O)[C@@H]1CCCN1C(=O)[C@H](CCC(=O)O)NC(=O)[C@H](CC(C)C)NC(=O)CNC(=O)[C@@H](NC(=O)[C@@H](NC(=O)[C@@H](NC(=O)[C@H](C)NC(=O)[C@H](CCC(=O)O)N(C)C(=O)[C@@H](N)[C@@H](C)O)[C@@H](C)O)[C@@H](C)CC)[C@@H](C)O)[C@@H](C)O)[C@@H](C)O)[C@@H](C)CC)C(C)C)C(=O)N[C@@H](C)C(=O)N[C@@H](CC(C)C)C(=O)O [Met-FNIII14, [N-Me-Glu]^2-FNIII14] (H-T[NMeE]ATITGLEPGTEYTIYVIAL-OH; N-terminus and C-terminus assumed)",more stabilized than FNIII14,–,–,–,–,–
Ac-TEATITGLEPGTEYTIYVIAL (N-terminus assumed) [Ace-FNIII14],more stabilized than FNIII14,–,–,–,–,–
"TEATITGLEPGTEYTIYVIAL [FNIII14, reference compound]",rapidly lost its activity within 2 hours,–,–,–,–,about 60%

# Source: patent US9327013B2, “Activity enhancer for anticancer agent” (TOKYO UNIVERSITY OF SCIENCE FOUNDATION, priority 2011, dated 2016)
